Data reported in paper PMC9964242 (Vaccines, 2023).
Converted amounts (≈) assume the structure as drawn. “And” between values parts separate entries of the source, which are not always exact repeats. Equal values may be shown once. Read-outs that look alike come from different tables or passages of the source.

What was measured:
MDCK cells [1] = tested on: MDCK cells
[2] = tested on: influenza A/Egypt/NRC098/2019(H1N1)
Zika virus = conditions: cited from earlier work
in vitro = conditions: dog
[3] = tested on: influenza A/Egypt/NRC098/2019(H1N1); assay: microbe, parasite or virus in culture; conditions: H1N1, MDCK
[4] = tested on: influenza A/chicken/Egypt/N12640A/2016 (H5N1); assay: microbe, parasite or virus in culture; type: cell-based, influenza A/H5N1 virus; conditions: for IC50: Influenza A virus, H5N1, MDCK, read-out: IC50 (half-maximal inhibitory concentration)
[5] = tested on: seasonal influenza A/H1N1 virus; type: cell-based
[6] = tested on: seasonal influenza A/H1N1 virus; type: cell-based; conditions: for Viral inhibition / inactivation of viral infectivity through direct viricidal action: 10–100 µg/mL
[7] = tested on: seasonal influenza A/H1N1 virus; type: cell-based; remark: listed apart in the source
A/ShanTou/169/06 (H1N1) = conditions: cited from earlier work
MDCK cells [8] = conditions: cited from earlier work
[9] = read-out: IC50 (half-maximal inhibitory concentration)

Structure (SMILES) | CC50 (half-maximal cytotoxic concentration) (MDCK cells [1]; dog) | Antiviral activity against A/H1N1 (in words) [2] | SI (selectivity index = CC50/IC50) [2] | CC50 (in vitro) | IC50 [3, 9] | IC50 relative to CC50 (in words) [2] | other results
C[C@@H]1CC[C@@]2(OC1)O[C@H]1[C@@H](O)[C@H]3[C@@H]4CC[C@H]5C[C@@H](O[C@@H]6O[C@H](CO)[C@H](O[C@@H]7O[C@H](CO)[C@@H](O)[C@H](O[C@@H]8OC[C@@H](O)[C@H](O)[C@H]8O)[C@H]7O[C@@H]7O[C@H](CO)[C@H](O)[C@H](O[C@@H]8O[C@H](CO)[C@@H](O)[C@H](O)[C@H]8O)[C@H]7O)[C@H](O)[C@H]6O)[C@H](O)C[C@]5(C)[C@H]4CC[C@]3(C)[C@H]1[C@@H]2C [Digitonin] | 442 µg/mL (≈ 360 µM) | moderate antiviral activity | 20.56 | 442 µg/mL (≈ 360 µM) | 21.5 µg/mL (≈ 17.5 µM) | – | IC50 (Zika virus): 7.91 µM; IC50 [3]: 21.6 µg/mL (≈ 17.5 µM)
COc1cc(C=O)ccc1O [Vanillin] | 242 µg/mL (≈ 1590 µM) | – | – | 242 µg/mL (≈ 1590 µM) | – | IC50 > CC50 | –
O=C1c2cccc(O)c2C(=O)c2c(O)cc(CO)cc21 [Aloe emodin] | 2280 µg/mL (≈ 8440 µM) | – | 3.127 | 2280 µg/mL (≈ 8440 µM) | 729 µg/mL (≈ 2700 µM) | – | –
C[C@@H]1O[C@@H](O[C@H]2[C@H](Oc3cc(O)c4c(c3)O[C@H](c3ccc(O)cc3)CC4=O)O[C@H](CO)[C@@H](O)[C@@H]2O)[C@H](O)[C@H](O)[C@H]1O [Naringin] | – | moderate antiviral activity | >485.43 | > 10000 µg/mL | 20.6 µg/mL (≈ 35.5 µM) | – | IC50 [3]: 20.7 µg/mL (≈ 35.6 µM)
O=C[C@H](O)[C@@H](O)[C@H](O)[C@H](O)C(=O)O [D-Glucuronic acid, Glucuronic acid] | 10260 µg/mL (≈ 52800 µM) | – | – | 10300 µg/mL (≈ 52800 µM) | – | IC50 > CC50 | –
O=C(O)/C=C/c1ccccc1O [O-Coumaric acid] | 9172 µg/mL (≈ 55900 µM) | – | – | 9170 µg/mL (≈ 55900 µM) | – | IC50 > CC50 | –
O=c1c(O[C@@H]2O[C@H](CO)[C@@H](O)[C@H](O)[C@H]2O)c(-c2ccc(O)c(O)c2)oc2cc(O)cc(O)c12 [Isoquercitrin] | 710 µg/mL (≈ 1530 µM) | poor antiviral potential | 4.25 | 710 µg/mL (≈ 1530 µM) | 167 µg/mL (≈ 360 µM) | – | –
C=C(C)[C@@H]1CC[C@]2(C)CC[C@]3(C)[C@H](CC[C@@H]4[C@@]5(C)CC[C@H](O)C(C)(C)[C@@H]5CC[C@]43C)[C@@H]12 [Lupeol] | 560 µg/mL (≈ 1310 µM) | – | 5.98 | 560 µg/mL (≈ 1310 µM) | 93.6 µg/mL (≈ 219 µM) | – | IC50 [3]: 93.7 µg/mL (≈ 220 µM)
O=C1CC(c2ccccc2)Oc2ccccc21 (centres unmarked) [Flavanone] | – | – | – | – | – | IC50 > CC50 | CC50 (half-maximal cytotoxic concentration) (MDCK cells [1]): 450 µg/mL (≈ 2010 µM)
O=C[C@H](O)[C@@H](O)[C@@H](O)[C@H](O)C(=O)O [D-Galacturonic acid, Galacturonic acid] | 9610 µg/mL (≈ 49500 µM) | – | – | 9610 µg/mL (≈ 49500 µM) | – | IC50 > CC50 | –
CC(=O)N[C@H]1[C@H]([C@H](O)[C@H](O)CO)OC(C(=O)O)=C[C@@H]1N=C(N)N [Zanamivir, reference compound] | – | – | >12,626 | > 10000 µg/mL | 0.792 µg/mL (≈ 2.38 µM) | – | SI (selectivity index = CC50/IC50) [4]: >37,736; IC50 [4]: 0.265 µg/mL (≈ 0.797 µM)
OC[C@H]1O[C@@H](Oc2ccc(O)cc2)[C@H](O)[C@@H](O)[C@@H]1O [Arbutin] | – | – | >13.09 | > 10000 µg/mL | 764 µg/mL (≈ 2810 µM) | – | –
C[C@]12CC[C@@H]3c4ccc(O)cc4CC[C@H]3[C@@H]1CC[C@@H]2O [Estradiol, estradiol, reference compound] | – | – | – | > 5000 µg/mL | – | – | IC50 [3]: 7.1 µg/mL (≈ 26.1 µM)
Cc1cc(O)c2c(c1)C(=O)c1cccc(O)c1C2=O [Chrysophanic acid] | 46.1 µg/mL (≈ 181 µM) | – | – | 46.1 µg/mL (≈ 181 µM) | – | IC50 > CC50 | –
CC[C@H](CC[C@@H](C)[C@H]1CC[C@H]2[C@@H]3CC=C4C[C@@H](O[C@@H]5O[C@H](CO)[C@@H](O)[C@H](O)[C@H]5O)CC[C@]4(C)[C@H]3CC[C@]12C)C(C)C [β-sitosterol-O-glucoside] | 1750 µg/mL (≈ 3030 µM) | – | 2434 | 1750 µg/mL (≈ 3030 µM) | 0.719 µg/mL (≈ 1.25 µM) | – | IC50 [4]: 0.613 µg/mL (≈ 1.06 µM); Plaque reduction %, Viral Replication [5]: 28.7% and 37.7% and 52.8%; Plaque reduction %, Viricidal [6]: 83.6% and 93.3% and 97.1%; Viral inhibition / inactivation of viral infectivity through direct viricidal action [6]: up to 90%; Plaque reduction %, Viral Adsorption [7]: 35.8% and 48.3% and 56.9%
CC[C@H](CC[C@@H](C)[C@H]1CC[C@H]2[C@@H]3CC=C4C[C@@H](O)CC[C@]4(C)[C@H]3CC[C@]12C)C(C)C [β-sitosterol] | 9900 µg/mL (≈ 23900 µM) | – | 10,154 | 9900 µg/mL (≈ 23900 µM) | 0.975 µg/mL (≈ 2.35 µM) | – | IC50 [4]: 0.295 µg/mL (≈ 0.711 µM); Plaque reduction %, Viral Replication [5]: 31.8% and 41.2% and 52.9%; Plaque reduction %, Viricidal [6]: 84% and 98.5% and 99%; Viral inhibition / inactivation of viral infectivity through direct viricidal action [6]: up to 90%; Plaque reduction %, Viral Adsorption [7]: 28% and 37.5% and 52.5%
COc1cc(C2Oc3cc([C@H]4Oc5cc(O)cc(O)c5C(=O)[C@@H]4O)ccc3OC2CO)ccc1O (some centres unmarked) [Silybin] | 9480 µg/mL (≈ 19700 µM) | poor anti-influenza potential | – | 9480 µg/mL (≈ 19700 µM) | – | IC50 > CC50 | EC50 (A/ShanTou/169/06 (H1N1)): 70.8 ± 8.11 µM; CC50 (MDCK cells [8]): > 400 µM
OC[C@@H](O)[C@@H](O)[C@H](O)[C@@H](O)CO [D-sorbitol] | – | – | >3.215 | > 10000 µg/mL | 3110 µg/mL (≈ 17100 µM) | – | –
O=C1C[C@@H](c2ccccc2)Oc2cc(O)cc(O)c21 [Pinocembrin] | – | poor anti-H1N1 activity | – | > 10000 µg/mL | > 10000 µg/mL | – | –
C[C@@H]1O[C@@H](Oc2cc(O)c3c(=O)c(O[C@@H]4O[C@@H](C)[C@H](O)[C@@H](O)[C@H]4O)c(-c4ccc(O)cc4)oc3c2)[C@H](O)[C@H](O)[C@H]1O [Kaempferitrin] | – | moderate antiviral activity | >209.20 | > 10000 µg/mL | 47.8 µg/mL (≈ 82.6 µM) | – | –
O=c1cc(-c2ccccc2)oc2cc(O)ccc12 [7-Hydroxy flavone] | 5830 µg/mL (≈ 24500 µM) | poor antiviral activity | 16.194 | 5830 µg/mL (≈ 24500 µM) | 360 µg/mL (≈ 1510 µM) | – | –
